Experimental findings from patent US11866430B2, “Naphthyridinone compounds useful as T cell activators” (priority 2018, dated 2024) are described below.

Assay [1] deals with human DGKα (Homo sapiens (Human), UniProt P23743). Kind of assay: biochemical. In outline: (§1)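 Enzymes were baculovirus/Sf9 full-length human DGKα or DGKζ with His tag. The substrate was PS/DAG in octyl glucoside micelles, in MOPS pH 7.5 buffer with NaCl, MgCl2, CaCl2 and DTT.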
In assay [2] the test system is pre-activated CD4 T cells and Raji cells. The assay is described as follows: Raji CD4 T Cell IL2 Assay. In kind it is cell-based. The settings on record: Homo sapiens, Raji.
Assay [3] relates to Jurkat AP1-luciferase Reporter. Kind of assay: DGK AP1-Reporter Assay. In kind it is cell-based. The protocol: The Jurkat AP1-luciferase Reporter was generated using the Cignal Lenti AP1 Reporter (luc) Kit from SABiosciences (CLS-011L).
The sample size was 30 nl per well; and one destination plate per source plate. The cell suspensions were prepared by transferring 40 mL cells (2×20 mL) to clean 50 mL conical tubes. The cells were concentrated by centrifugation (1200 rpm; 5 mins; ambient temperature). […] The cell plates were incubated for 20 minutes at 37° C., and 5% CO2.
During the incubation, anti-CD3 antibody (αCD3) solutions were prepared by mixing 3 μl αCD3 (1.3 mg/mL) with 10 mL medium [final conc=0.4 μg/mL]. Next, 1.5 μl αCD3 (1.3 mg/mL) was mixed with 0.5 mL medium [final conc=4 μg/mL]. After 20 minutes, 10 μl medium was added to all wells in column 1, wells A to M, and 10 μl αCD3 (4 μg/mL) per well was added in column 1, rows N to P for reference. Then using a multi-channel pipette, 10 μl αCD3 (0.4 μg/mL) per well was added. The αCD3 stimulated +/− compound-treated cells were incubated at 37° C., 5% CO2 for 6 hours.
During this incubation period. Steady-Glo (Promega E2520) reagent was slowly thawed on to ambient temperature. Next, 20 μl Steady-Glo reagent per well was added using a multi-drop Combi-dispenser. Bubbles were removed by centrifugation (2000 rpm, ambient temperature, 10 sees). The cells were incubated at room temperature for 5 minutes. Samples were characterized by measuring the Relative Light Units (RLU) with an using Envision Plate Reader Instrument on a luminescence protocol.

For assay [4], the target named is human DGKζ (Homo sapiens (Human), UniProt Q13574). The assay is described as follows: DGKζ assay (detergent/lipid micelle substrate). The settings on record: detergent/lipid micelle substrate; read-out: DGKζ IC50. In kind it is biochemical. In outline: as §1
[5] abbreviates: detergent/lipid micelle substrate, read-out: DGKα IC50.
Where [6] appears, read: Homo sapiens, Jurkat, read-out: API-Luciferase Reporter IC50, Table 3.
[7] abbreviates: Homo sapiens, Jurkat, read-out: DGKAP1 Lucif Reporter IC50, Table 4.
Setting [8] is: read-out: API-Luciferase Reporter IC50, Table 3.

Read-outs that look alike come from different tables or passages of the source.

Sequence of human DGKα (P23743 other isoform, or with tags, fused parts or gaps): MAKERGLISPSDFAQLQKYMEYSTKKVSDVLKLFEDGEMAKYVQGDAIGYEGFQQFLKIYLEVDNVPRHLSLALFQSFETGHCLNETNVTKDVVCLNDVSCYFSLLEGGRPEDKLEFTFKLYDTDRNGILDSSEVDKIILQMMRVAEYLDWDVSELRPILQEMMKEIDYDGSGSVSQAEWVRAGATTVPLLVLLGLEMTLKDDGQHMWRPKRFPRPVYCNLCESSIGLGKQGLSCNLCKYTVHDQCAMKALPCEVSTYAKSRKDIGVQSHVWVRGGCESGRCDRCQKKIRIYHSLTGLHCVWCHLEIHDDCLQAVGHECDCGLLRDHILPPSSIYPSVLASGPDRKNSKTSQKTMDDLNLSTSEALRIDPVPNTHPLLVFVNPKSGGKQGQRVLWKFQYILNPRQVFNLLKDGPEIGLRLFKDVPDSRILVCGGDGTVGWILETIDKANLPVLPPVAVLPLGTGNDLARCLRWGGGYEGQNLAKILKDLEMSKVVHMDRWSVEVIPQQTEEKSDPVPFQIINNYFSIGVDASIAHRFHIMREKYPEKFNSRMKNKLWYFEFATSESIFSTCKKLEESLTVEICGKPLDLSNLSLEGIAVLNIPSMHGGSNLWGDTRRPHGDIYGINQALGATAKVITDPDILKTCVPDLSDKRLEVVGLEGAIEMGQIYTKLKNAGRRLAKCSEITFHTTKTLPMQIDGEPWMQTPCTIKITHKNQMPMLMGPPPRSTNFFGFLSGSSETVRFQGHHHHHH
Sequence of human DGKζ (Q13574 other isoform, or with tags, fused parts or gaps): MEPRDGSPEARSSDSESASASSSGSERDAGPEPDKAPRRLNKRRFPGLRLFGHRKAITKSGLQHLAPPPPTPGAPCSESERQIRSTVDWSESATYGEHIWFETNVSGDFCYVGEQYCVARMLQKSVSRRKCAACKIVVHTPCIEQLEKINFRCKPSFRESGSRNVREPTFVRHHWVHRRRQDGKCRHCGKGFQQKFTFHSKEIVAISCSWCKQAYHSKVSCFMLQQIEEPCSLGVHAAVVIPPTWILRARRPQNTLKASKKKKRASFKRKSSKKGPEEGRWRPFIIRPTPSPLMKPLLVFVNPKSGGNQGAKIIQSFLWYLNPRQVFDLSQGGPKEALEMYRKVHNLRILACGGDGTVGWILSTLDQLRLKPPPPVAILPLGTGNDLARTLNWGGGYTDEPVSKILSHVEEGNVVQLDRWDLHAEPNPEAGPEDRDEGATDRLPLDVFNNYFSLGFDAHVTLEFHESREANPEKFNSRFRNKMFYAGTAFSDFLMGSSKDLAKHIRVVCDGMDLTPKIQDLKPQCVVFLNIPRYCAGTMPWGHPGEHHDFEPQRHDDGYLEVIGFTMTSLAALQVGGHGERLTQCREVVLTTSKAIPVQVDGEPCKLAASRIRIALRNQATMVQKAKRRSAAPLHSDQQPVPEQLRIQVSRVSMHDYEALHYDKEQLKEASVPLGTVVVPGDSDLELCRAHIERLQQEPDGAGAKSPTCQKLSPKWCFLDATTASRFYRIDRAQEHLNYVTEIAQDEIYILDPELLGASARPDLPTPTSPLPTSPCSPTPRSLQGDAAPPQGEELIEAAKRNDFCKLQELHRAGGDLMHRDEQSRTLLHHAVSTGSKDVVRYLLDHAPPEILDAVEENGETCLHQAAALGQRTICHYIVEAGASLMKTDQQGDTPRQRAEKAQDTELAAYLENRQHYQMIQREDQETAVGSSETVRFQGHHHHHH

The IC50 is the concentration needed to halve the response being measured. As to `Cn1c(=O)c(C#N)c(N2CCN(Cc3ccc(O)c(F)c3)CC2)c2nc(C#N)ccc21` [Example 363, 8-{4-[(3-fluoro-4-hydroxyphenyl)methyl]piperazin-1-yl}-5-methyl-6-oxo-5,6-dihydro-1,5-naphthyridine-2,7-dicarbonitrile], the half-inhibitory concentration (IC50) in assay [1] (setting [5]) is 0.15 µM; in assay [2], above 100 µM; in assay [3] (setting [6]), 10 µM; in assay [4], above 240 µM.
Turning to `COc1cccc(Cl)c1CN1CCN(c2c(C#N)c(=O)n(C)c3ccc(Cl)nc23)CC1` [Example 365, 6-chloro-4-{4-[(2-chloro-6-methoxyphenyl)methyl]piperazin-1-yl}-1-methyl-2-oxo-1,2-dihydro-1,5-naphthyridine-3-carbonitrile], the IC50 in assay [1] (setting [5]) is 3.5 µM; in assay [2] it was above 100 µM; in assay [3] (setting [6]), 2.22 µM; in assay [3] (setting [7]), 10 µM; in assay [4] it was 190 µM.
For the compound `Cn1c(=O)c(C#N)c(N2CCN(Cc3c(F)cccc3F)CC2)c2nc(Cl)ccc21` [Example 422, 6-chloro-4-{4-[(2,6-difluorophenyl)methyl]piperazin-1-yl}-1-methyl-2-oxo-1,2-dihydro-1,5-naphthyridine-3-carbonitrile], the 50% inhibitory concentration (IC50) in assay [1] (setting [5]) is 1.4 µM; in assay [2], above 100 µM; in assay [3] (setting [6]), 3.49 µM; in assay [4] it was above 240 µM.
With `C#CCn1c(=O)c([N+](=O)[O-])c(N2CCN(C(c3ccc(F)cc3)c3ccc(F)cc3O)CC2)c2nc(C#N)ccc21` (single isomer, unassigned) [Example 120, 8-(4-((4-fluoro-2-hydroxyphenyl)(4-fluorophenyl)methyl)piperazin-1-yl)-7-nitro-6-oxo-5-(prop-2-yn-1-yl)-5,6-dihydro-1,5-naphthyridine-2-carbonitrile], the IC50 in assay [1] (setting [5]) was 18 µM; in assay [3] (setting [8]) it was 1.3 µM; in assay [4], above 81 µM.
Regarding `C#CCn1c(=O)c([N+](=O)[O-])c(N2CCN(C(c3ccc(F)cc3)c3ccccc3O)CC2)c2nc(C#N)ccc21` (racemic) [Example 132, 8-(4-((4-fluorophenyl)(2-hydroxyphenyl)methyl)piperazin-1-yl)-7-nitro-6-oxo-5-(prop-2-yn-1-yl)-5,6-dihydro-1,5-naphthyridine-2-carbonitrile], the 50% inhibitory concentration (IC50) in assay [1] (DGKα IC50, detergent/lipid micelle substrate) came out at 3.3 µM; in assay [3] (setting [6]), 0.08 µM; in assay [4], 0.15 µM.
In the case of `Cn1c(=O)c(C#N)c(N2CCN(Cc3ccc(C#N)cc3F)CC2)c2nc(Cl)ccc21` [Example 379, 6-chloro-4-{4-[(4-cyano-2-fluorophenyl)methyl]piperazin-1-yl}-1-methyl-2-oxo-1,2-dihydro-1,5-naphthyridine-3-carbonitrile], the concentration for half-maximal inhibition (IC50) in assay [1] (setting [5]) was 0.38 µM; in assay [3] (setting [6]), 7.84 µM; in assay [4] it was above 240 µM.
`Cc1ccc(F)c(CN2CCN(c3c(C#N)c(=O)n(C)c4ccc(Cl)nc34)CC2)c1` [Example 364, 6-chloro-4-{4-[(2-fluoro-5-methylphenyl)methyl]piperazin-1-yl}-1-methyl-2-oxo-1,2-dihydro-1,5-naphthyridine-3-carbonitrile]: the 50% inhibitory concentration (IC50) in assay [1] (setting [5]) was 1.1 µM; in assay [2] it was above 100 µM; in assay [3] (setting [6]), 1.57 µM; in assay [3] (setting [7]), 10 µM; in assay [4] it was above 240 µM.
For the compound `COCCn1c(=O)c([N+](=O)[O-])c(N2CCN(C3CCc4ccc(OC)cc43)CC2)c2nc(C#N)ccc21` (stereo not shown) [Example 146, 8-(4-(6-methoxy-2,3-dihydro-1H-inden-1-yl)piperazin-1-yl)-5-(2-methoxyethyl)-7-nitro-6-oxo-5,6-dihydro-1,5-naphthyridine-2-carbonitrile], the IC50 in assay [1] (setting [5]) was above 240 µM; in assay [2], above 100 µM; in assay [3] (setting [6]), 1.87 µM; in assay [4], 36 µM.
Consider `COc1cc(F)ccc1C(c1ccc(F)cc1)N1CCN(c2c(C#N)c(=O)n(C)c3ccc(Br)nc23)CC1` (racemic) [Example 15, 6-bromo-4-{4-[(4-fluoro-2-methoxyphenyl)(4-fluorophenyl)methyl]piperazin-1-yl}-1-methyl-2-oxo-1,2-dihydro-1,5-naphthyridine-3-carbonitrile], for which the half-inhibitory concentration (IC50) amounted to 0.55 µM in assay [1] (setting [5]), 1.82 µM in assay [3] (setting [6]) and 58 µM in assay [4].
For the compound `C#CCn1c(=O)c([N+](=O)[O-])c(N2CCN(C3CCc4ccc(OC)cc43)CC2)c2nc(C#N)ccc21` (stereo not shown) [Example 138, 8-(4-(6-methoxy-2,3-dihydro-1H-inden-1-yl)piperazin-1-yl)-7-nitro-6-oxo-5-(prop-2-yn-1-yl)-5,6-dihydro-1,5-naphthyridine-2-carbonitrile], the IC50 in assay [1] (setting [5]) is 32 µM; in assay [2], above 100 µM; in assay [3] (setting [6]) it was 0.66 µM; in assay [4], 0.73 µM.
Consider `CC(c1ccc(F)cc1)N1CCN(c2c(C#N)c(=O)n(C)c3ccc(Br)nc23)CC1` (racemic) [Example 22, 6-bromo-4-{4-[1-(4-fluorophenyl)ethyl]piperazin-1-yl}-1-methyl-2-oxo-1,2-dihydro-1,5-naphthyridine-3-carbonitrile], for which the IC50 in assay [1] (setting [5]) is 0.07 µM; in assay [3] (setting [6]) it was 1.53 µM; in assay [4] it was above 81 µM.
With `Cn1c(=O)c(C#N)c(N2CCN(Cc3cccc4cc[nH]c34)CC2)c2nc(Br)ccc21` [Example 373, 6-bromo-4-{4-[(1H-indol-7-yl)methyl]piperazin-1-yl}-1-methyl-2-oxo-1,2-dihydro-1,5-naphthyridine-3-carbonitrile], the IC50 in assay [1] (setting [5]) was 2.5 µM; in assay [2], above 100 µM; in assay [3] (setting [6]) it was 0.26 µM; in assay [4], 100 µM.
In the case of `COc1ccccc1C(c1ccc(F)cc1)N1CCN(c2c([N+](=O)[O-])c(=O)n(C)c3ccc(C#N)nc23)CC1` (single isomer, unassigned) [Example 19, 8-{4-[(4-fluorophenyl)(2-methoxyphenyl)methyl]piperazin-1-yl}-5-methyl-7-nitro-6-oxo-5,6-dihydro-1,5-naphthyridine-2-carbonitrile], the IC50 in assay [1] (setting [5]) was 13 µM; in assay [2], above 100 µM; in assay [3] (setting [8]) it was 0.83 µM; in assay [4] it was 19 µM.
In the case of `C#CCn1c(=O)c([N+](=O)[O-])c(N2CCN(C(c3ccc(F)cc3)c3ccccc3OC)CC2)c2nc(C#N)ccc21` (single isomer, unassigned) [Example 131, 8-(4-((4-fluorophenyl)(2-methoxyphenyl)methyl)piperazin-1-yl)-7-nitro-6-oxo-5-(prop-2-yn-1-yl)-5,6-dihydro-1,5-naphthyridine-2-carbonitrile], the IC50 is 11 µM in assay [1] (setting [5]), 0.5 µM in assay [3] (setting [6]) and 0.37 µM in assay [4].
Consider `Cn1c(=O)c([N+](=O)[O-])c(N2CCN(C(CO)c3ccc(F)cc3)CC2)c2nc(C#N)ccc21` (stereo not shown) [Example 37, 8-{4-[1-(4-fluorophenyl)-2-hydroxyethyl]piperazin-1-yl}-5-methyl-7-nitro-6-oxo-5,6-dihydro-1,5-naphthyridine-2-carbonitrile], for which the concentration for half-maximal inhibition (IC50) in assay [1] (setting [5]) is 1.8 µM; in assay [3] (setting [6]), 2.83 µM; in assay [4], 38 µM.
On the same counts, the results for `CC(c1ccc(F)cc1)N1CCN(c2c([N+](=O)[O-])c(=O)n(C)c3ccc(C#N)nc23)CC1` (stereo not shown) [Example 43, 8-(4-(1-(4-fluorophenyl)ethyl)piperazin-1-yl)-5-methyl-7-nitro-6-oxo-5,6-dihydro-1,5-naphthyridine-2-carbonitrile] are 0.037 µM, 0.4 µM and 6.3 µM.
On the same counts, the results for `Cn1c(=O)c(C#N)c(N2CCN(CC(O)c3ccc(F)cc3)CC2)c2nc(Br)ccc21` (racemic) [Example 28, 6-bromo-4-{4-[2-(4-fluorophenyl)-2-hydroxyethyl]piperazin-1-yl}-1-methyl-2-oxo-1,2-dihydro-1,5-naphthyridine-3-carbonitrile] are 1.3 µM, 4.45 µM and above 81 µM.
As to `Cn1c(=O)c(C#N)c(N2CCN(Cc3ccccc3NS(C)(=O)=O)CC2)c2nc(Br)ccc21` [Example 212, N-(2-((4-(6-bromo-3-cyano-1-methyl-2-oxo-1,2-dihydro-1,5-naphthyridin-4-yl)piperazin-1-yl)methyl)phenyl)methanesulfonamide], the IC50 in assay [1] (setting [5]) was 2.2 µM; in assay [3] (setting [6]) it was 1.14 µM; in assay [4], above 240 µM.
